Legend:
[1] = collision cross section (TWIMS, N2) of ion [M+H]+; higher = larger gas-phase ion cross section; conditions: ionization: ESI positive; LC: HILIC, pH 3.0 ammonium formate
Experimental: (§1)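 Reference standards (20-100 uM) were separated by HILIC UPLC (BEH HILIC, 45 °C): acidic pH 3.0 ammonium formate/formic acid for ESI+ and basic pH 9.0 ammonium acetate/ammonia for ESI-. They were analysed on a Synapt G2-Si traveling-wave IMS-QTOF with nitrogen drift gas (WH 30 V; WV 800 m/s in ESI+ and 1000 m/s in ESI-).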

[2] = collision cross section (TWIMS, N2) of ion [M-H]-; higher = larger gas-phase ion cross section; conditions: ionization: ESI negative; LC: HILIC, pH 9.0 ammonium acetate
Experimental: as §1

[3] = retention time on BEH HILIC column (20 min gradient, 0.4 mL/min); higher = later elution; conditions: LC: HILIC
Experimental: as §1

[4] = ionization: ESI negative, pH 9.0 ammonium acetate
[5] = ionization: ESI positive, pH 3.0 ammonium formate

SMILES | collision cross section [1] [Å²] | collision cross section [2] [Å²] | retention time on BEH HILIC column [3, 4] [min] | retention time on BEH HILIC column [3, 5] [min]
CC(C)(COP(=O)(O)OP(=O)(O)OC[C@H]1O[C@@H](n2cnc3c(N)ncnc32)[C@H](O)[C@@H]1OP(=O)(O)O)[C@@H](O)C(=O)NCCC(=O)NCCSC(=O)CCC(=O)O [Succinyl-CoA] | 260.23 | 262.11 | 12.3 | 13.5
CCCCC/C=C\C/C=C\C/C=C\C/C=C\CCCC(=O)O [Arachidonic acid] | 178.98 | 186.98 | 0.72 | 0.77
NCCC[C@H](N)C(=O)O [Ornithine] | 129.31 | 129.53 | 11.2 | 11.1
CC[C@H](C)[C@H](N)C(=O)O [L-isoleucine] | 133.13 | 129.46 | 6.68 | 6.47
NC(=O)NCCC[C@H](N)C(=O)O [Citrulline] | 137.33 | 135.18 | 9.07 | 8.89
O=c1ccn([C@@H]2O[C@H](CO)[C@@H](O)[C@H]2O)c(=O)[nH]1 [Uridine] | 146.3 | 153.03 | 1.47 | 1.47
Nc1c(C(=O)O)c2nc3c(C(=O)O)cccc3oc-2cc1=O [Cinnavalininate] | 156.61 | 156.31 | 2.92 | 2.66
Nc1ccccc1C(=O)O [2-aminobenzoic acid] | 124.05 | 126.13 | 0.97 | 0.82
N[C@@H](Cc1ccccc1)C(=O)O [L-phenylalanine] | 137.14 | 138.51 | 6.02 | 5.92
N[C@@H](Cc1c[nH]c2ccccc12)C(=O)O [L-tryptophan] | 147.76 | 148.33 | 5.86 | 5.77
CC(C)[C@H](N)C(=O)O [L-valine] | 123.49 | 126.43 | 6.85 | 6.79
CC(C)C[C@H](N)C(=O)O [L-leucine] | 131.44 | 131.1 | 6.46 | 6.26
NCCc1ccc(O)c(O)c1 [Dopamine] | 139.55 | 130.85 | 4.35 | 4.6
O=C(O)c1cc(=O)c2ccccc2[nH]1 [Kynurenic acid] | 135.88 | 134.49 | 4.13 | 4.01
N[C@@H](CSSC[C@H](N)C(=O)O)C(=O)O [L-cystine] | 146.43 | 143.16 | 12 | 11.4
Oc1ncnc2nc[nH]c12 [Hypoxanthine] | 125.05 | 121.62 | 2.31 | 2.28
O=C1O[C@H]([C@@H](O)CO)C(O)=C1O [Ascorbic acid] | 134.39 | 122.95 | 1.17 | 0.72
O=C(O)CCCC[C@@H]1SC[C@@H]2NC(=O)N[C@@H]21 [Biotin] | 148.62 | 153.03 | 1.78 | 1.88

From the supplement of paper PMC11127212
